In US20220408724A1, “METHOD FOR CONTROLLING METABOLISM OF BRANCHED FATTY ACID” (KAO CORPORATION, priority 2019, published 2022):
Where “and” joins values, the source holds several entries; their conditions need not be identical. Equal entries are not always repeated.

Tests used:
Format in all cases: cell-based
[1] = system: Staphylococcus aureus; assay: Suppression of metabolism of 14-methylhexadecanoic acid on cotton fabric; conditions: agent 250 μg/fabric g
Experimental: A methanol solution in which 14-methylhexadecanoic acid (SIGMA-ALDRICH) was dissolved was added dropwise to 3 cm×3 cm pieces of sterilized plain-weave cotton fabric to make it adhered to the fabric. The adhesion amount of 14-methylhexadecanoic acid was set to 10 μg per piece of the plain-weave cotton fabric (100 μg/fabric g).
Further, a methanol solution in which each metabolism controlling agent was dissolved was prepared and added dropwise to the fabric to which 14-methylhexadecanoic acid adhered, and it was thereafter dried for an hour. This fabric was placed in a sterilized screw tube bottle No. 3 (Maruemu Corporation) and 100 μl of the bacterial suspension was inoculated thereto, and culture was carried out under 37° C.; conditions for 21 hours.
3 ml of methanol was added to the screw tube bottle after culture, and extraction was carried out under ultrasonic irradiation for 30 minutes (20° C.). The extraction liquid was mixed with a (trimethylsilyl)diazomethane hexane solution (FUJIFILM Wako Pure Chemical Corporation) at 9:1 (volume ratio) and left overnight under room temperature and dark place conditions. After that, 14-methylhexadecanoic acid remaining on the fabric was quantified by GC. The quantification conditions for GC are as follows. • GC: Agilent 7890A • GC column: Agilent DB-1 30 m×250 μm×0.25 μm • Temperature rise condition: 50° C. (held for 3 minutes)-(10° C./min)-300° C. (held for 5 minutes) • Sample injection volume: 1 μl • Split ratio: 1:12 • Detector: FID
The residual amount of 14-methylhexadecanoic acid after culture on the fabric to which the metabolism controlling agent was added was quantified, and the ratio of the residual amount to that of 14-methylhexadecanoic acid in the case of adding no metabolism controlling agent (control) was calculated as a metabolism suppression rate (%). The higher a numerical value thereof is, the more the metabolism is suppressed. Note that the metabolism suppression rate was determined by the following formula:
Metabolism suppression rate(%)=[1−(100−A)/(100−B)]×100 • A: residual amount of 14-methylhexadecanoic acid of example or comparative example (μg/fabric g) • B: residual amount of 14-methylhexadecanoic acid of control (μg/fabric g)
(§1) The metabolism of 14-methylhexadecanoic acid by bacteria of the genus Staphylococcus (Staphylococcus aureus) was tested in the same manner as in example 1.
(§2) In this example, Staphylococcus aureus (strain isolated from clothing) was used as a microorganism.
(§3) Further, in this example, a bacterial suspension of 10^7 (CFU/ml) prepared by using an NB liquid medium diluted to 1/10 with ion exchange water was used as a bacterial suspension.

[2] = system: Staphylococcus aureus; assay: Suppression of metabolite 4-methylhexanoic acid from 14-methylhexadecanoic acid
Experimental: (§4) After culture on fabric prepared in the same manner as in the above (1), 3 ml of methanol was added, and extraction was carried out under ultrasonic irradiation for 30 minutes (20° C.). The extraction liquid was mixed with (a 1000 ppm methanol solution of) an ADAM reagent of Funakoshi Co., Ltd. at 1:1 (volume ratio) and left overnight under room temperature and dark place conditions. After that, 4-methyl-3-hexenoic acid as a metabolite from 14-methylhexadecanoic acid was quantified by HPLC. The quantification conditions are as follows.
(§5) The production amount of 4-methyl-3-hexenoic acid after culture on the fabric to which each metabolism controlling agent was added was quantified, and the ratio of the production amount to that of 4-methyl-3-hexenoic acid in the case of adding no metabolism controlling agent (control) was calculated as a metabolite suppression rate (%). The higher a numerical value thereof is, the more the metabolism is suppressed. Note that the metabolite suppression rate was determined by the following formula:
Metabolite suppression rate(%)=100×[(D−C)/D] • C: production amount of metabolite of example or comparative example (μg/fabric g) • D: production amount of metabolite of control (μg/fabric g)
as §1, §2, §3
Further, in this example, 4-methylhexanoic acid was quantified as a metabolite from 14-methylhexadecanoic acid, and the metabolite suppression rate was determined in the same manner as in example 1.
(§6) Note that, in this example, C12OH (1-dodecanol) was used as the metabolism controlling agent.

[3] = system: Escherichia coli (NBRC3972); assay: Measurement of viable bacterial count on fabric
Experimental: (§7) After culture on fabric prepared in the same manner as in the above (1), 9 mL of an LP diluent (manufactured by NIHON PHARMACEUTICAL CO., LTD.) was added, and the extraction of the bacteria was carried out under ultrasound for 10 minutes. The extraction liquid was poured and mixed to an SCD-LP agar medium (NIHON PHARMACEUTICAL CO., LTD.), and culture was thereafter carried out at 37° C.; for a day. The number of colonies obtained on each piece of the fabric was counted, and a common logarithm value thereof was measured as the viable bacterial count. […] In addition, the […], the more the viable bacterial count of the microorganism is maintained.
The metabolism of 14-methylhexadecanoic acid by bacteria of the genus Escherichia (Escherichia coli) was tested in the same manner as in example 1.
In this example, Escherichia coli (NBRC3972) was used as a microorganism.
Further, in this example, a bacterial suspension of 10^6 (CFU/ml) prepared by using an NB liquid medium diluted to 1/10 with ion exchange water was used as a bacterial suspension.
as §6

[4] = system: Moraxella osloensis; assay: Examination example: suppression of metabolite 4-methyl-3-hexenoic acid, components (a) and (b)/(b′); conditions: single agent 100 μg/fabric g
Experimental: as §4
Eluent: acetonitrile 61% (v/v), water 39% (v/v) Column temperature: 40° C. Sample injection volume: 10 μL Flow rate: 1.0 mL/min
as §5, with “the” for “each”, “formula. In references 1-1, 2-1, 3-1 and 4-1, which are controls, the metabolite suppression rate is 0%.” for “formula:”
Metabolite suppression rate(%)=100×[(D−C)/D] • C: production amount of metabolite of reference or examination example (μg/fabric g) • D: production amount of metabolite of control (μg/fabric g)

[5] = system: Moraxella osloensis; assay: Examination example: measurement of viable bacterial count; conditions: single agent 100 μg/fabric g
Experimental: as §7

**Q.** For `CCCCCCCCCCCCO` [Example C12OH, 1-dodecanol], which “Metabolism suppression rate (%)” value [1] is on record?
**A.** Its value is 75%.

**Q.** And the “Metabolite suppression rate (%)” value ([2]; agent 100 μg/fabric g)?
**A.** Its value is 10.00%.

**Q.** What about the “Metabolite suppression rate (%)” value ([2]; agent 250 μg/fabric g) of the same molecule?
**A.** The value was 74% and 64.10%.

**Q.** And the “Metabolite suppression rate (%)” value ([2]; agent 500 μg/fabric g)?
**A.** Its value is 93.20%.

**Q.** What about the “Bacterial count (Log (cfu/fabric cm^2))” value ([3]; agent 500 μg/fabric g) of the same molecule?
**A.** Its value is 6.3 Log (cfu/fabric cm^2).

**Q.** What about the “Bacterial count (Log (cfu/fabric cm^2))” value ([3]; agent 1000 μg/fabric g) of the same molecule?
**A.** The value was 6.3 Log (cfu/fabric cm^2) and 6.4 Log (cfu/fabric cm^2).

**Q.** And the “Bacterial count (Log (cfu/fabric cm^2))” value ([3]; agent 2000 μg/fabric g)?
**A.** The value was 6.3 Log (cfu/fabric cm^2).

**Q.** What about the “Bacterial count (Log (cfu/fabric cm^2))” value ([3]; agent 3000 μg/fabric g) of the same molecule?
**A.** The value was 6.3 Log (cfu/fabric cm^2).

**Q.** And the “Product of metabolism of branched fatty acid: Metabolite suppression rate (%)” value [4]?
**A.** The value was 20%.

**Q.** What about the “Product of metabolism of branched fatty acid: Production amount (μg/fabric g)” value [4] of the same molecule?
**A.** The value was 3.5 μg/fabric g.

**Q.** What about the “Viable bacterial count (Log (cfu/fabric cm^2))” value [5] of the same molecule?
**A.** Its value is 6.2 Log (cfu/fabric cm^2).
